From PMC5938390, “Tachyplesin Causes Membrane Instability That Kills Multidrug-Resistant Bacteria by Inhibiting the 3-Ketoacyl Carrier Protein Reductase FabG” (Frontiers in Microbiology, 2018)
Positions of bridges follow the written chain, without caps; N, C: chain ends. Residues, ends and D or L forms follow the SMILES beside them.

Columns and labels:
A. baumannii 1408 [1] = test: MIC against MDR clinical isolate; format: cell-based, Acinetobacter baumannii
FabG from S. aureus = target: T1, FabG from S. aureus (Staphylococcus aureus, UniProt P0A0H9); test: FabG enzyme activity inhibition assay (NADPH consumption, A340); format: biochemical; conditions: higher concentrations (7.5 and 15 μM) of peptide, 6 μM FabG, 5 min, room temperature
T1 construct: His tag (C); made in house; host or cells: E. coli BL21 DE3 (vector pET28a)
T1 sequence (P0A0H9 1-246): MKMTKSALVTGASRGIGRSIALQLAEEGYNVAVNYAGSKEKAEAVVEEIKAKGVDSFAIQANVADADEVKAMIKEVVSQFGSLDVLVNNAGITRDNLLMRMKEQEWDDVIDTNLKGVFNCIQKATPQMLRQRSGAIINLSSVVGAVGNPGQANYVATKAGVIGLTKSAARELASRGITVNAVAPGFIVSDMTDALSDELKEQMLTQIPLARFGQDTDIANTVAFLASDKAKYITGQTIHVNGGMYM
Experimental: A 96-well plate with a final total volume of 200 μl per reaction was used for the FabG inhibition assay. Briefly, tachyplesin III (15, 7.5, and 3.75 μM) was incubated with 1.5 μM FabG from E. coli or 6 μM FabG from S. aureus at room temperature for 5 min, before the addition of 300 μM nicotinamide adenine dinucleotide phosphate (NADPH, Sigma) and then 150 μM acetoacetyl-CoA (Sigma) to initiate the reaction. The decrease in absorbance at 340 nm was recorded over 5 min to reflect the consumption of NADPH.
FIGURE 7 Tachyplesin III binding with FabG inhibits its enzyme activities in vitro, probably by blocking the active site. Binding interactions between tachyplesin III and FabG from E. coli (A) or from S. aureus (E) were analyzed by surface plasmon resonance (SPR) with a Biocore 3000 (Biocore, Piscataway, NJ, United States). Black line: 1.25 μg/mL FabG; green line: 2.5 μg/mL FabG; purple line: 5 μg/mL FabG; and red line: 10 μg/mL FabG. […] Tachyplesin was processed with Chemdraw 11.0 according to the structure of tachyplesin I (PDB code 2RTV) and then docked to the active site of FabG from E. coli (PDB code 1Q7B) or S. aureus (PDB code 3SJ7) with AutoDock4 using the default settings. […] Statistical significance was analyzed by one-way ANOVA followed by the Newman–Keuls multiple-comparisons test, ^∗∗p < 0.01, ^∗p < 0.05.

K. pneumoniae 5 = test: Transcriptome analysis (RNA sequencing, FPKM, DESeq); format: cell-based, Klebsiella pneumoniae; conditions: Kp; Ta 16 μg/ml, 30 min, 37°C
Experimental: (§1) The Vitek 32 system (bioMerieux, France) and 16S rDNA sequencing were used to verify the clinical isolates A. baumannii 1408, P. aeruginosa 1409, Klebsiella pneumoniae 5 and E. coli 513, which were grown overnight in Luria-Bertani (LB) medium at 37°C with constant shaking at 220 rpm to reach the middle of their logarithmic growth phase. […] After the addition of 2 volumes of RNAprotect Bacteria Reagent (QIAGEN) to stabilized RNA, samples were vortexed for 5 s, incubated for 5 min at room temperature (15–25°C) and collected by centrifugation at 4°C for 5 min at 4000 g.
(§2) RNA isolation and sequencing were performed by Novogene Bioinformatics Technology Co., Ltd. (Beijing, China) as previously described ([Liu B. et al., 2014]). Clean reads were mapped to the corresponding bacterial genomes using Bowtie 2 software ([Langmead and Salzberg, 2012]). Gene expression was calculated using the FPKM (expected number of fragments per kilobase of transcript sequence per millions of base pairs sequenced) method with HTSeq software (union model) ([Anders et al., 2015]). Differentially expressed genes were selected based on the DESeq R package with Padj values < 0.05 ([Anders and Huber, 2010]). KEGG pathway analysis was performed using KOBAS (2.0), and the corrected p value cut-off was set at 0.05 ([Li et al., 2015]).

P. aeruginosa 1409 [2] = test: MIC against MDR clinical isolate; format: cell-based, Pseudomonas aeruginosa; conditions: P. aeruginosa 1409
FabG gene = test: FabG transcription level by quantitative real-time PCR; format: cell-based, A. baumannii, E. coli, K. pneumoniae, P. aeruginosa; conditions: all four bacteria, RNAs from transcriptome analysis (16 μg/ml, 30 min), 2^-ΔΔCT, rpsL reference
Experimental: Quantitative real-time PCR (RT-PCR) was performed following the 2^-ΔΔCT method with RNAs from the aforementioned transcriptome analysis ([Livak and Schmittgen, 2001]; [Liu C. et al., 2014]). Untreated pathogen strains were used as the calibrator strains, and corresponding ribosomal rpsL genes were used as housekeeping reference genes with the primers shown in Supplementary Table S1 ([Dumas et al., 2006]).
FIGURE 5 Expression of FabG increased after tachyplesin treatment. Quantitative real-time PCR was performed following the 2^-ΔΔCT method. Untreated pathogen strains were used as the calibrator strains, and the corresponding ribosomal rpsL genes were used as housekeeping reference gene with the primers shown in Supplementary Table S1.

A. baumannii 1408 [3] = test: Transcriptome analysis (RNA sequencing, FPKM, DESeq); format: cell-based, Acinetobacter baumannii; conditions: Ab; Ta 16 μg/ml, 30 min, 37°C
Experimental: as §1, §2

P. aeruginosa 1409 [4] = format: cell-based, Pseudomonas aeruginosa; conditions: Pa; Ta 16 μg/ml, 30 min, 37°C
Experimental: as §1, §2

[5] = test system: Escherichia coli strain DH5α; conditions: 37°C, 2 mg/ml, stability judged by MIC against DH5α, tested during the first 6 h
Experimental: These studies were carried out as we previously reported with slight modifications and briefly introduced as follows ([Liu et al., 2017]). […] Cytotoxicity in different cell lines was assessed using the Cell Proliferation Kit II (XTT) (Roche), and cytotoxicity in hemocytes was evaluated by the increase in the absorbance at 540 nm after peptide incubation. Membrane rupture was indicated by the entrance of the DNA-binding fluorescent dye PI into MDR clinical isolates of P. aeruginosa strain 1409. Membrane translocation of N-terminal FITC-conjugated tachyplesin III (purity ≥ 95%, synthesized by GL Biochem Co., Ltd, Shanghai, China) into MDR clinical isolates of Acinetobacter baumannii strain 1408 were detected by confocal laser-scanning microscopy.
Tachyplesin III (2 mg/ml) was incubated in either sterile deionized water or mouse serum at 37°C for various lengths of time, aliquots were taken, and MICs against DH5α cells were tested. Stability of the MIC indicates the stability of tachyplesin III.

CC[C@H](C)[C@@H]1NC(=O)CNC(=O)[C@H](CCCNC(=N)N)NC(=O)[C@H](Cc2ccc(O)cc2)NC(=O)[C@@H]2CSSC[C@H](NC1=O)C(=O)N[C@@H](Cc1ccc(O)cc1)C(=O)N[C@@H](CCCNC(=N)N)C(=O)N[C@@H](CCCCN)C(=O)N[C@H](C(=O)N[C@@H](CCCNC(=N)N)C(N)=O)CSSC[C@H](NC(=O)[C@H](Cc1c[nH]c3ccccc13)NC(=O)[C@@H](N)CCCCN)C(=O)N[C@@H](Cc1ccccc1)C(=O)N[C@@H](CCCNC(=N)N)C(=O)N[C@@H](C(C)C)C(=O)N2 [tachyplesin III] (H-KWCFRVCYRGICYRKCR-NH2; disulfide 3-16, 7-12 (inferred); N-terminus and C-terminus assumed)
16 μg/ml tachyplesin III expressed as multiple of MIC (A. baumannii 1408 [1]): 1 × MIC
FabG activity (FabG from S. aureus): almost completely blocked
Fold change after Ta treatment, gene KPNJ2_01584 (Enoyl-CoA hydratase) (K. pneumoniae 5): 2
Fold change after Ta treatment, gene KPNJ2_03426 (3-ketoacyl-acyl carrier protein reductase) (K. pneumoniae 5): 1.83
16 μg/ml tachyplesin III expressed as multiple of MIC (P. aeruginosa 1409 [2]): 2 × MIC
FabG expression by quantitative real-time PCR (FabG gene): elevations
Fold change after Ta treatment, gene A1S_2061 (3-ketoacyl-acyl carrier protein reductase) (A. baumannii 1408 [3]): 2.89
Fold change after Ta treatment, gene PADK2_09275 (3-hydroxyacyl-CoA dehydrogenase) (P. aeruginosa 1409 [4]): 2.04
Fold change after Ta treatment, gene PADK2_25405 (3-ketoacyl-acyl carrier protein reductase) (P. aeruginosa 1409 [4]): 2.71
time stable in mouse serum [5]: at least 6 h
